Values joined by “and” are separate entries in the source; they are usually repeats but may differ in a detail not shown here. Equal values may be shown once.
Legend:
[1] = GA glucuronidation kinetics in human intestinal microsomes; assay type: in vitro ADME; settings: for microsomal CLint: human intestinal microsomes
[2] = GA glucuronidation kinetics in rat liver microsomes; assay type: in vitro ADME, Sprague-Dawley rats; settings: for microsomal CLint: rat liver microsomes
[3] = GA glucuronidation kinetics in rat intestinal microsomes; assay type: in vitro ADME, Sprague-Dawley rats
[4] = GA glucuronidation kinetics in beagle dog liver microsomes; assay type: in vitro ADME, beagle dogs; settings: DLM; for microsomal CLint / Km at 30 min: beagle, dog; for microsomal CLint: dog liver microsomes; for Km at 30 min: liver microsomes, pH 7.4, Km (KS), Michaelis–Menten
UGT1A3 = molecular target: T1, UGT1A3 (Homo sapiens, UniProt P35503); assay: GA glucuronidation kinetics by recombinant UGT1A3; assay type: in vitro ADME; settings: recombinant human UGT1A3, pH 7.4
T1 sequence (P35503 29-534): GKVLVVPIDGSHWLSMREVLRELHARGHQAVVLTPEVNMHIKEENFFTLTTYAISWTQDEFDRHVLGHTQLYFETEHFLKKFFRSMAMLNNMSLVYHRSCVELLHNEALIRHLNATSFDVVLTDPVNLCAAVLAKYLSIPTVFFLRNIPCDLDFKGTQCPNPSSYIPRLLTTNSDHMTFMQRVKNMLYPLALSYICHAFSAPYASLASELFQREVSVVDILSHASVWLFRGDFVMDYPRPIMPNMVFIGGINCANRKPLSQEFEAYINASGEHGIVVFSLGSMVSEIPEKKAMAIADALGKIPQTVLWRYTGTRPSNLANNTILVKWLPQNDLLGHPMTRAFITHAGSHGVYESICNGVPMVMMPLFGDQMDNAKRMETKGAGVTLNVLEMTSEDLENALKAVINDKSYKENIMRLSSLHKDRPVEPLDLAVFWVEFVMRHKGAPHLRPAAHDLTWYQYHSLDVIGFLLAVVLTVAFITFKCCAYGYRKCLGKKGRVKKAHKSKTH

UGT1A8 = molecular target: T2, UGT1A8 (Homo sapiens, UniProt Q9HAW9); assay: GA glucuronidation by recombinant UGT1A8; assay type: in vitro ADME
T2 sequence (Q9HAW9 26-530): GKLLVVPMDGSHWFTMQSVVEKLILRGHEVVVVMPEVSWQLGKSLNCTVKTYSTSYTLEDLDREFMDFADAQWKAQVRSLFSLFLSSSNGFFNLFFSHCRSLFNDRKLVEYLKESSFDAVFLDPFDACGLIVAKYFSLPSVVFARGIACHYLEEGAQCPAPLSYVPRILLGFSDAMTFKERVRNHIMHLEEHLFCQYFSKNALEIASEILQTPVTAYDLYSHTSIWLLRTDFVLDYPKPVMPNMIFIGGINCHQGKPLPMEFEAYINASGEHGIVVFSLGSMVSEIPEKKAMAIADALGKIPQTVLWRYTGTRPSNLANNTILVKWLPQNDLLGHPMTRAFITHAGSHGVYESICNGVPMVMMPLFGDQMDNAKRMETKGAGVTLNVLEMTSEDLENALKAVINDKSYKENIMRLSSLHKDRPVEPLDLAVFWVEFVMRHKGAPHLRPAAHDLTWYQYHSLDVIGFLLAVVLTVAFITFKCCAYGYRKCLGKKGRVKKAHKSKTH

UGT1A10 = molecular target: T3, UGT1A10 (Homo sapiens, UniProt Q9HAW8); assay: GA glucuronidation kinetics by recombinant UGT1A10; assay type: in vitro ADME
T3 sequence (Q9HAW8 26-530): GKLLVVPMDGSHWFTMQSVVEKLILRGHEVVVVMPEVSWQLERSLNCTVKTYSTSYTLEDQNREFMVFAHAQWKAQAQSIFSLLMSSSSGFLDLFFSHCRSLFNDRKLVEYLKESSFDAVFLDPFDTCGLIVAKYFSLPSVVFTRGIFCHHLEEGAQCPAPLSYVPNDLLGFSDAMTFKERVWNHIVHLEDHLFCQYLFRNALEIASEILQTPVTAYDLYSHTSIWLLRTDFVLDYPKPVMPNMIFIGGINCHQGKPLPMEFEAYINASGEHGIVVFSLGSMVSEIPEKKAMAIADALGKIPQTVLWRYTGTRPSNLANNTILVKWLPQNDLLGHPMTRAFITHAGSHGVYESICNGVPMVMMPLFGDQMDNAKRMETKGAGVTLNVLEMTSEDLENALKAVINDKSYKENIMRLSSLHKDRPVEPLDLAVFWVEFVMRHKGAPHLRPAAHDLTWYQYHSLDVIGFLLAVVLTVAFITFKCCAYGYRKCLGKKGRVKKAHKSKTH

recombinant human UGT1A9 = molecular target: T4, recombinant human UGT1A9 (Homo sapiens, UniProt O60656); assay: GA glucuronidation by recombinant UGT1A9; assay type: in vitro ADME; settings: UGT1A9, whole range of substrate concentrations
T4 sequence (O60656 26-530): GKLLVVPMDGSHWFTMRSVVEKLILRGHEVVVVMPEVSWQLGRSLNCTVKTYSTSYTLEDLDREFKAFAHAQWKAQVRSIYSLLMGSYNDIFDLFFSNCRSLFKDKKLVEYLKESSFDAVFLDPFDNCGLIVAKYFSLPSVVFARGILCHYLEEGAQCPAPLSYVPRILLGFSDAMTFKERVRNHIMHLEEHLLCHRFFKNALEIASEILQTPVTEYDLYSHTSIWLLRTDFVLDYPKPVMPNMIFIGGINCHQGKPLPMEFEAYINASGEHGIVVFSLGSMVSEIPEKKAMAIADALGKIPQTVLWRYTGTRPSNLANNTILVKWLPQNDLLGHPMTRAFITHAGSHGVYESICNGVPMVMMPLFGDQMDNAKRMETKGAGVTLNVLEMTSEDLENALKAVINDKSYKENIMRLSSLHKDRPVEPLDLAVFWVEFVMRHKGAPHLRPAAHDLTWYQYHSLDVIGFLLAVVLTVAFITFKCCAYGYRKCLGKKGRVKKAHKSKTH

[5] = rats; cited from earlier work
CYP3A4 = settings: earlier study; cited from earlier work

For CC1(C)C=Cc2c(ccc3c2OC[C@@H](c2ccc(O)cc2O)C3)O1 [GA, glabridin], the “Clint of HIM relative to HLM” value ([1]; GA glucuronidation, Table 2) was “more than 100 fold”, the Vmax ([1]; HIM, M2 formation) was 16.7 ± 7.4 nmol/min/mg and the microsomal CLint ([1]; both, human, pH 7.4, Clint, HIM, M2 formation) was 2010 µL/min/mg. It also gave a microsomal CLint ([1]; both, human, pH 7.4, Clint, HIM, M2 formation (text)) of 2000 µL/min/mg, a microsomal CLint ([1]; both, human, pH 7.4, Cltotal, HIM) of 2010 µL/min/mg and a Km at 20 min ([1]; both, human, intestinal microsomes, pH 7.4) of 8.3 ± 3.5 µM. The KSI ([2]; RLM, M2 formation) was 7.6 ± 3.0 µM, the Vmax ([2]; RLM, M2 formation) was 16 ± 5 nmol/min/mg and the Km at 20 min ([2]; male, Sprague-Dawley, rat, liver microsomes, pH 7.4) was 3.9 ± 1.9 µM. The microsomal CLint ([2]; male, Sprague-Dawley, rat, pH 7.4, Clint, RLM, M2 formation) was 4100 µL/min/mg, the microsomal CLint ([2]; male, Sprague-Dawley, rat, pH 7.4, Clint, RLM, M2 formation (text)) was 4000 µL/min/mg and the microsomal CLint ([2]; male, Sprague-Dawley, rat, pH 7.4, Cltotal, RLM) was 4100 µL/min/mg. For the same compound, the KSI ([3]; RIM, M2 formation) was 5.3 ± 2.5 µM, the Vmax ([3]; RIM, M2 formation) was 19 ± 6 nmol/min/mg and the Km at 20 min ([3]; male, Sprague-Dawley, rat, intestinal microsomes, pH 7.4) was 3.8 ± 1.1 µM. It also gave a microsomal CLint ([3]; male, Sprague-Dawley, rat, rat intestinal microsomes, pH 7.4, Cltotal, RIM) of 5000 µL/min/mg, a Vmax ([4]; M1 formation) of 2.4 ± 0.5 nmol/min/mg and a Vmax ([4]; M2 formation) of 6.2 ± 1.3 nmol/min/mg. It also gave a microsomal CLint ([4]; pH 7.4, Clint, M1 formation) of 71 µL/min/mg, a microsomal CLint ([4]; pH 7.4, Clint, M2 formation) of 214 µL/min/mg and a microsomal CLint ([4]; pH 7.4, Cltotal, M1 + M2) of 285 µL/min/mg. For the same compound, the Km at 30 min ([4]; M1 formation) was 34 ± 12 µM, the Km at 30 min ([4]; M2 formation) was 29 ± 12 µM and the microsomal CLint (UGT1A3) was 29 µL/min/mg. The “catalytic activity of UGT1A8 relative to other isoforms” value (UGT1A8; 2 µM GA, 0.1 mg/mL recombinant UGTs, 60 min) was “more than 5 fold”, the KSI (UGT1A8; UGT1A8, M2 formation) was 1.7 ± 0.4 µM and the microsomal CLint (UGT1A8; human, recombinant UGT1A8, pH 7.4) was 172 µL/min/mg. The “Clint of UGT1A8 relative to other isoforms” value (UGT1A8; recombinant UGTs) was “more than 5 fold”, the KSI (UGT1A10; UGT1A10, M2 formation) was 36 ± 11 µM and the Vmax (UGT1A10; UGT1A10, M2 formation) was 0.50 ± 0.10 nmol/min/mg and 0.5 ± 0.1 nmol/min/mg. The microsomal CLint (UGT1A10; human, recombinant UGT1A10, pH 7.4) was 18 µL/min/mg, the GA glucuronidation activity (recombinant human UGT1A9) was less than 0.04 nmol/min/mg and the oral availability [5] was “about 7.5 % of the oral dose”. For the same compound, the “inhibition of CYP3A4” value (CYP3A4) was “mechanism-based inhibitor”.

— article PMC6300978 (Chemico-biological interactions, 2015)
